{"source": "patent US20050266073A1", "about": "“Fast disintegrating granules containing bromhexin/bromhexinhydrochloride, process for their preparation, and their use in veterinary medicine” (Boehringer Ingelheim Vetmedica GmbH, priority 2004, published 2005)", "origin": "cited, not measured here", "key": {"[1]": {"assay": "not given", "remark": "listed apart in the source"}}}
{"compound": "CN(Cc1cc(Br)cc(Br)c1N)C1CCCCC1.Cl", "note": "[Bromhexinhydrochloride]", "values": [{"measurement": "solubility in ethanol, methanol and methylene chloride (in words)", "value": "dissolves with difficulty"}]}
{"compound": "CN(Cc1cc(Br)cc(Br)c1N)C1CCCCC1", "note": "[Bromhexin, N-cyclohexyl-N-methyl-(2-amino-3,5-dibrombenzyl)amine]", "values": [{"measurement": "solubility in water", "setting": "[1]", "value": 1, "unit": "g/250 ml"}, {"measurement": "solubility in water (in words)", "setting": "[1]", "value": "soluble with difficulty"}]}
